For test [1], the system named is platelets. The test is classed as cell-based. The conditions noted are these: for platelet aggregation potency relative to analogue 3: more potent than analogue 3; for increase in platelet aggregation potency relative to analogue 5: substitution of Leu at position 3. The protocol: Platelet aggregation was assessed using the method of Born, Nature 194:927-929 (1962), incorporated herein by reference. Briefly, the change in light transmission was measured through a stirred suspension of platelets in an aggregometer (Model 400 VS, Chrono-Log, Hayertown, Pa., USA). […] In studies using thrombin, the PRP was gel-filtered on Sepharose 2B in divalent ion-free Tyrode's solution containing 2% BSA. For all studies, the reference standard was platelet-poor plasma, which was obtained by centrifuging PRP at 1000×g for 5 min.
All aggregation studies were performed at 37° C. with a constantly stirred suspension of 3×10^8 platelets/mL. (Platelet count was determined with the aid of a hemacytometer.) Peptides and stimulants were added to these suspensions in 1% dilutions. The PRP and gel-filtered platelets were used within three hours from the time of blood collection.
The peptides described in this Example were synthesized according to the methods of Examples I and XI. Selectivity and potency were measured according to the methods of Examples II through XI. The peptide identification numbers used in this Example are consistent and relevant to this Example only. Some of the peptides are identified by other nomenclature elsewhere in this document.

For test [2], the system named is platelets. As to the kind of experiment: ADP-stimulated platelet aggregation in platelet-rich plasma (Table I). The conditions noted are these: read-out: ADP-Stimulated Aggregation; ADP 10 μm, citrated platelet-rich plasma, 37° C.; * concentrations unconfirmed by amino acid composition analysis.
Procedure: (§1) All aggregation studies were performed at 37° C. with a constantly stirred suspension of 3×10^8 platelets/ml. (Platelet count was determined with the aid of a hemacytometer.) Peptides and stimulants were added to these suspensions in 1% dilutions. The PRP and gel-filtered platelets were used within three hours from the time of blood collection.
(§2) Peptide anti-aggregation potencies were determined from dose-responsive curves for the inhibition of the maximum aggregation responses stimulated by physiologic doses of ADP (10 μm) and thrombin (2 U/ml).
In test [3] the test system is platelets. Kind of test: Thrombin-stimulated platelet aggregation (Table I). Particulars: read-out: Thrombin Stimulated Aggregation; thrombin 2 U/ml, gel-filtered platelets, 37° C.
Procedure: as §1, §2
The mark [4] stands for this setting: substitution of Arg at position 4.

Where no end group is shown, it is not given here. [ ]: non-standard residue; d: D form. The star is where a group is joined. Pmc = Cc1c(C)c(S(=O)(=O)*)c(C)c2c1OC(C)(C)CC2; Pen = CC(C)(S)[C@H](N)C(=O)O Bounds are passed on as bounds.

As for (Pmp)GHRGDLRCA, the “platelet aggregation potency relative to analogue 1” value with platelets [1] (more potent than analogue 1) came out at 2 fold.
In the case of (Pmp)GRGDTPCA, the IC50 with platelets [2] was 85 µM.
Consider “(t-but-am-Pmp)GHRGDLR(Pen)A [(t-but-am-P mp)GHRGDLR(Pen)A]”, for which the IC50 with platelets [2] was found to be 89 µM.
As for “Ac- CNPRGD(Y--OMe)(Cit)C--NH2 [Peptide 11S]”, the “platelet aggregation potency compared with analogue 32” value in the test on platelets [1] (setting [4]) is on record as “substantial decreases in platelet aggregation potency”.
Regarding “Ac- CNPRGD(Y--OMe)(dR)C--NH2 [Peptide 11L]”, in the test on platelets [1] (setting [4]), the “platelet aggregation potency compared with analogue 32” value is on record as “decrease in potency”.
Take Ac- CNPRGD(Y--OMe)KC--NH2 [Peptide 11R]: in the test with platelets [1] (setting [4]), the “inhibitory activity retained relative to analogue 32” value turned out to be 20%.
In the case of Ac-CIPRGD(Y-OMe)RC-NH2 [Peptide 10R], the “increase in platelet aggregation potency relative to analogue 26” value with platelets [1] was 3-4 fold.
Consider “Ac-CNPRGD(O-N-Butyl-Y)RC-NH2 [Ac CNPRGD(O-n-butyl-Tyr)RC--NH2]”, for which, in the test on platelets [2], the IC50 worked out at 0.1 µM.
Same read-out and setting: the same measure for G(Pen)FRGDSFCA: > 200 µM.
For the substance G(Pen)GHRGDTRCA, the IC50 was determined as 17 µM in the test with platelets [3] and 11.3 µM in the test on platelets [2].
Regarding G(Pen)GRGDRPCA, in the test on platelets [2], the IC50 amounted to 22.3 µM.
Turning to G(Pen)GRGDTPCA, the figures for the IC50 with platelets [3] and in the test with platelets [2] were 28 µM and 22.3 µM, respectively.
The matching figures for G(Pen)LRGDSPCA: 308 µM and 415 µM.
The matching figures for G(Pen)LRGDSRCA: 49 µM and 41 µM.
Regarding G(Pen)LRGDTPCA, the IC50 in the test with platelets [2] turned out to be 86 µM.
The same measure, in the same setting: the same measure for “G[Pen]GRGDSFCA (cysteine pairing not given here)”: 115 µM; for “G[Pen]YRGDSPCA (cysteine pairing not given here)”: 47 µM.
Still for that read-out and setting: the same measure for L(Pen)GHRGDLRCA: 10.5 µM.
Regarding R2(Pen)GRGDTPCA, the IC50 in the test with platelets [3] is 2.7 µM; in the test on platelets [2], 8.2 µM.
In the case of R(D-Pen)GHRGDLRCR [analogue 4], the “platelet aggregation potency relative to analogue 3” value in the test on platelets [1] is 2 fold.
For R(Pen)GRGDTPCA, the IC50 in the test with platelets [3] came to 3.1 µM; in the test with platelets [2], 7 µM.
Turning to R(Pen)GRGDTPCK, the IC50 with platelets [2] worked out at 7.6 µM.
Consider R(Pen)GRGDTPCR, for which the IC50 with platelets [3] was 2 µM; in the test on platelets [2], 6.3 µM.
R(Pmc)GHRGDFRCR: the “increase in platelet aggregation potency relative to analogue 5” value in the test on platelets [1] is ~5 fold. In addition, in the test with platelets [2], the IC50 worked out at 0.62 µM.
For R(Pmc)GHRGDLRCR [analogue 5], the “platelet aggregation potency relative to analogue 3” value in the test with platelets [1] amounted to 3 fold.
Regarding R(Pmc)GHRGDVRCR, the “increase in platelet aggregation potency relative to analogue 5” value in the test on platelets [1] amounted to 4 fold. Further, the IC50 in the test with platelets [2] came out at 0.69 µM.
As to R(Pmc)GHRGDYRCR, the IC50 in the test on platelets [2] came out at 1 µM.
Turning to R(Tmc)GHRGDLRCR [analogue 7], the “platelet aggregation potency relative to analogue 3” value in the test with platelets [1] is 2 fold.
For R(orn)GHRGDLRDR, in the test on platelets [2], the IC50 is > 200 µM.
Still for that read-out and setting: the same measure for “R[Pen]GHRGDTRCR (cysteine pairing not given here)”: 8.8 µM.
Take “R[Pen]GRGDLRCA (cysteine pairing not given here)”: the IC50 with platelets [3] was 13 µM; with platelets [2], 16 µM.
The matching figures for “R[Pen]GRGDSRCA (cysteine pairing not given here)”: 12 µM and 12 µM.
